# Reference: paper PMC4452589, “An evaluation of the brain distribution of [^11C]GSK1034702, a muscarinic-1 (M1) positive allosteric modulator in the living human brain using positron emission tomography” (EJNMMI Research, 2014)
# Like-named read-outs stand apart in the source and are kept apart here.
# Tests used:
# [1] = [11C]GSK1034702 PET brain distribution and kinetics in anaesthetised baboons; format: in vivo, Papio anubis; conditions: for Kp: baboon (Papio anubis), intravenous
# Procedure: The brain distribution of carbon-11-labelled GSK1034702 ([^11C]GSK1034702) was conducted in two anaesthetised baboons (P. anubis), to assess its transport across the BBB. These studies were conducted at Columbia University Medical Center, New York. The study was approved by the Columbia University Institutional Animal Care and Use Committee (IACUC).
# Two adult baboons were studied over a 6-week period. Subject A (an ovariectomised female) received two injections of [^11C]GSK1034702 22 days apart, while subject B (male) received a single injection of [^11C]GSK1034702. Each experimental session included a single dynamic PET scan.
# Fasted animals were immobilised with intramuscular ketamine injection (10 mg/kg), and anesthetised with 1.8% isoflurane via an endotracheal tube. Vital signs were monitored every 10 min and the temperature was kept constant at 37°C with heated water blankets. An intravenous (IV) perfusion line was used for hydration and injection of the radiotracer. A catheter was inserted in a femoral artery for arterial blood sampling. The head was positioned at the centre of the field of view. PET imaging was performed with the ECAT EXACT HR + PET scanner (Siemens/CTI, Knoxville, TN) operating in 3D mode (in-plane resolution of 4.3, 4.5, 5.4 and 8.0 mm, full width at half maximum (FWHM) at a distance of 0, 1, 10 and 20 cm from the centre of the field of view). A 15-min transmission scan was obtained prior to radiotracer injection for attenuation correction. […] Following IV administration (45-s bolus) of a single dose of [^11C]GSK1034702 dynamic PET, arterial blood and metabolite data were acquired for 120 min (subject A) for the first two scans and only 60 min for the third scan due to a technical issue (subject B).
# Regions of interest (ROIs) were drawn on previously acquired T1-weighted anatomical magnetic resonance imaging (MRI) brain images for each animal. The following regions were defined: cerebellum, hippocampus, thalamus, striatum, frontal cortex and occipital cortex. Regions were drawn in the MEDx (Sensor Systems Inc., Sterling, VA, USA) software environment. PET emission data were attenuation-corrected using the transmission scan, and frames were reconstructed using a Shepp filter (cutoff 0.5 cycles/projection rays). Decay-corrected PET images were registered to the MRI images by maximisation of mutual information using SPM2 and Matlab software. Regional boundaries were transferred from the MRI to the individual registered PET frames, and time-activity curves were measured in the MEDx environment. Right and left regions were averaged. For a given animal, the same regions were used for all scans.
# Brain time activity curves (TACs) were corrected for the contribution of blood activity assuming a 5% blood volume. A metabolite-corrected arterial input function and regional TACs were fitted to a compartmental model to derive regional VT estimates as well as a whole brain VT.
# [2] = plasma concentration after single 5-mg oral dose in humans; format: in vivo; conditions: human, read-out: GSK1034702 plasma concentration at start of post-dose PET scan
# Procedure: Serial venous blood samples were obtained at 0, 1, 2, 3, 4 and 5.5 h after the administration of a single oral dose of 5 mg of GSK1034702, to estimate the time course of GSK1034702 plasma concentration. Plasma samples were analysed using a validated analytical method.
# [3] = plasma protein binding by equilibrium dialysis, mouse; format: in vitro ADME; conditions: equilibrium dialysis 5 h
# Procedure: (§1) The in vitro brain and plasma protein binding of GSK1034702 across a range of species was determined using equilibrium dialysis as described previously.
# [4] = plasma protein binding by equilibrium dialysis, monkey; format: in vitro ADME; conditions: equilibrium dialysis 5 h
# Procedure: as §1
# [5] = brain tissue binding by equilibrium dialysis, monkey; format: in vitro ADME; conditions: equilibrium dialysis 5 h
# Procedure: as §1
# [6] = fP/fND ratio from equilibrium dialysis (expected VT for passive diffusion), primate; format: in vitro ADME; conditions: primate brain; monkey fP and monkey brain fND
# Source text: If a value for fND can be obtained, then the assumption of passive diffusion across the BBB can be tested. Under the conditions of passive diffusion, at equilibrium, CFT = CFP, and Eq. 3 is simplified to:4 VT=fP/fND
# A VT measurement from a PET biodistribution study can be compared to the fP/fND ratio, and passive diffusion can be assumed if the two are similar. Equilibrium dialysis provides a practical method for measurements of brain tissue fND (and also fP if necessary).
# Regional TACs with an arterial plasma metabolite- corrected input function were fitted using compartmental analyses, and estimates of the delivery rate constant for transfer from arterial plasma to tissue (K1) and VT were obtained. VT estimates derived were compared to in vitro estimates derived from equilibrium dialysis to investigate the BBB transport process.
# as §1
# [7] = set-up: method as in PMID 22932339; conditions: healthy smokers, nicotine abstinence model of cognitive dysfunction; cited from earlier work
# [8] = parent fraction in arterial plasma by HPLC during PET scan; format: in vivo; conditions: human, baseline and post-dose sessions, 90 min
# Procedure: Arterial blood radioactivity was measured continuously for the first 15 min after [^11C]GSK1034702 injection, using a continuous sampling system (ABSS Allogg, Mariefred, Sweden). In addition, 12 serial discrete blood samples were obtained (at 5, 10, 15, 20, 25, 30, 40, 50, 60, 70, 80 and 90 min post injection), to determine whole blood and plasma activity. Seven samples (at 5, 10, 20, 30, 50, 70 and 90 min) were further processed by HPLC to measure the fraction of plasma activity representing unmetabolised GSK1034702. For all human studies, the non-protein-bound fraction of [^11C]GSK1034702 in arterial plasma (fP) was assessed by ultrafiltration for the blood sample taken at the beginning of the scan.
# [9] = both sexes, whole brain, Papio anubis, mean ± SD of three scans, two-tissue compartmental model, read-out: whole brain VT
# [10] = mean ± SD, n = 6, read-out: Plasma protein binding (converted)
# [11] = read-out: f P (plasma-free fraction)
smiles,measurement,setting,value
Cc1cc(F)c2[nH]c(=O)n(C3CCN(C4CCOCC4)CC3)c2c1 [GSK1034702],Kp,"[1]; both sexes, cortex, primate, as worded, read-out: VT measured in the primate cortex",4
same,Kp,[1]; [9],3.97
same,concentration at 3.2 h,"[2]; Subject 2, 3.2 hours post dose",7.9 ng/mL
same,concentration at 4.4 h,"[2]; Subject 3, 4.4 hours post dose",13.2 ng/mL
same,concentration at 3.8 h,"[2]; Subject 4, 3.8 hours post dose",10.4 ng/mL
same,"fraction unbound at 5 h, 1 μg/mL",[3]; [10],0.518
same,"fraction unbound at 5 h, 1 μg/mL",[3]; [11],0.52
same,"fraction unbound at 5 h, 1 μg/mL",[4]; [10],0.583
same,"fraction unbound at 5 h, 1 μg/mL",[4]; [11],0.58
same,"fraction unbound at 5 h, 1 μg/mL","[5]; brain tissue, read-out: f ND (brain-free fraction)",0.17
same,Brain tissue binding,"[5]; 1 μg/mL, mean ± SD, n = 6",83.2 (±1.1) %
same,fP/fND ratio (expected VT if passive diffusion),[6],3.4
same,effect on episodic memory,[7],improved episodic memory
[11CH3]c1cc(F)c2[nH]c(=O)n(C3CCN(C4CCOCC4)CC3)c2c1 [[^11C]GSK1034702],Regional K1,"[1]; Cerebellum, Subject A Exam 1, baboon",0.46 mL.cm^-3.min^-1
same,Regional K1,"[1]; Cerebellum, Subject A Exam 2, baboon",0.57 mL.cm^-3.min^-1
same,Regional K1,"[1]; Cerebellum, Subject B Exam 1, baboon",0.35 mL.cm^-3.min^-1
same,Regional K1,"[1]; Frontal Ctx, Subject A Exam 1, baboon",0.39 mL.cm^-3.min^-1
same,Regional K1,"[1]; Frontal Ctx, Subject A Exam 2, baboon",0.53 mL.cm^-3.min^-1
same,Regional K1,"[1]; Frontal Ctx, Subject B Exam 1, baboon",0.32 mL.cm^-3.min^-1
same,Regional K1,"[1]; Hippocampus, Subject A Exam 1, baboon",0.39 mL.cm^-3.min^-1
same,Regional K1,"[1]; Hippocampus, Subject A Exam 2, baboon",0.60 mL.cm^-3.min^-1
same,Regional K1,"[1]; Hippocampus, Subject B Exam 1, baboon",0.32 mL.cm^-3.min^-1
same,Regional K1,"[1]; Occipital Ctx, Subject A Exam 1, baboon",0.67 mL.cm^-3.min^-1
same,Regional K1,"[1]; Occipital Ctx, Subject A Exam 2, baboon",0.53 mL.cm^-3.min^-1
same,Regional K1,"[1]; Occipital Ctx, Subject B Exam 1, baboon",0.37 mL.cm^-3.min^-1
same,whole brain VT,"[1]; Papio anubis, mean ± SD of three scans, two-tissue compartmental model",3.97 ± 0.38 mL.cm^−3
same,Regional K1,"[1]; Striatum, Subject A Exam 1, baboon",0.39 mL.cm^-3.min^-1
same,Regional K1,"[1]; Striatum, Subject A Exam 2, baboon",0.51 mL.cm^-3.min^-1
same,Regional K1,"[1]; Striatum, Subject B Exam 1, baboon",0.39 mL.cm^-3.min^-1
same,Regional K1,"[1]; Thalamus, Subject A Exam 1, baboon",0.44 mL.cm^-3.min^-1
same,Regional K1,"[1]; Thalamus, Subject A Exam 2, baboon",0.52 mL.cm^-3.min^-1
same,Regional K1,"[1]; Thalamus, Subject B Exam 1, baboon",0.27 mL.cm^-3.min^-1
same,Regional K1,"[1]; Whole Brain, Subject A Exam 1, baboon",0.45 mL.cm^-3.min^-1
same,Regional K1,"[1]; Whole Brain, Subject A Exam 2, baboon",0.50 mL.cm^-3.min^-1
same,Regional K1,"[1]; Whole Brain, Subject B Exam 1, baboon",0.35 mL.cm^-3.min^-1
same,Kp,[1]; [9],3.97
same,Kp,"[1]; female, cerebellum, Cerebellum, Subject A Exam 1, baboon, read-out: Regional V T",4.07
same,Kp,"[1]; female, cerebellum, Cerebellum, Subject A Exam 2, baboon, read-out: Regional V T",3.79
same,Kp,"[1]; female, frontal cortex, Frontal Ctx, Subject A Exam 1, baboon, read-out: Regional V T",3.92
same,Kp,"[1]; female, frontal cortex, Frontal Ctx, Subject A Exam 2, baboon, read-out: Regional V T",3.73
same,Kp,"[1]; female, hippocampus, Hippocampus, Subject A Exam 1, baboon, read-out: Regional V T",4.78
same,Kp,"[1]; female, hippocampus, Hippocampus, Subject A Exam 2, baboon, read-out: Regional V T",4.62
same,Kp,"[1]; female, occipital cortex, Occipital Ctx, Subject A Exam 1, baboon, read-out: Regional V T",4.49
same,Kp,"[1]; female, occipital cortex, Occipital Ctx, Subject A Exam 2, baboon, read-out: Regional V T",4.64
same,Kp,"[1]; female, striatum, Striatum, Subject A Exam 1, baboon, read-out: Regional V T",3.86
same,Kp,"[1]; female, striatum, Striatum, Subject A Exam 2, baboon, read-out: Regional V T",3.95
same,Kp,"[1]; female, thalamus, Thalamus, Subject A Exam 1, baboon, read-out: Regional V T",4.06
same,Kp,"[1]; female, thalamus, Thalamus, Subject A Exam 2, baboon, read-out: Regional V T",3.91
same,Kp,"[1]; female, whole brain, Whole brain, Subject A Exam 1, baboon, read-out: Regional V T",4.2
same,Kp,"[1]; female, whole brain, Whole brain, Subject A Exam 2, baboon, read-out: Regional V T",4.19
same,Kp,"[1]; male, cerebellum, Cerebellum, Subject B Exam 1, baboon, read-out: Regional V T",3.09
same,Kp,"[1]; male, frontal cortex, Frontal Ctx, Subject B Exam 1, baboon, read-out: Regional V T",3.52
same,Kp,"[1]; male, hippocampus, Hippocampus, Subject B Exam 1, baboon, read-out: Regional V T",3.52
same,Kp,"[1]; male, occipital cortex, Occipital Ctx, Subject B Exam 1, baboon, read-out: Regional V T",3.89
same,Kp,"[1]; male, striatum, Striatum, Subject B Exam 1, baboon, read-out: Regional V T",3.21
same,Kp,"[1]; male, thalamus, Thalamus, Subject B Exam 1, baboon, read-out: Regional V T",2.75
same,Kp,"[1]; male, whole brain, Whole brain, Subject B Exam 1, baboon, read-out: Regional V T",3.52
same,metabolism over the time course of the PET scan (parent fraction in plasma),[8],minimal metabolism
